Test results reported in patent US12723063B2, “GIPR-agonist compounds” (Eli Lilly and Company, priority 2019, dated 2026).
pKi: −log10 of the molar value. *1 amine or outer side, *2 acyl side, *3 side chain or, on linkers, in order; H or OH if unused. Where a SMILES comes first, the peptide text is derived from it. Side-chain parts run from the residue outwards. [ ]: non-standard residue; d: D form. The star is where a group is joined. C20 diacid = O=C(O)CCCCCCCCCCCCCCCCCCC(=O)*; C18 diacid = O=C(O)CCCCCCCCCCCCCCCCC(=O)*; γGlu = O=C(O)[C@H](CCC(=O)[*:2])N[*:1]; 4Pal = N[C@@H](Cc1ccncc1)C(=O)O; AEEA = NCCOCCOCC(=O)O; Aib = CC(C)(N)C(=O)O

What was measured:
[1] = target: T1, human GIPR (Homo sapiens, UniProt P48546); test: [125I]-GIP binding, SPA with WGA beads, 0.1% bacitracin; conditions: geometric mean, read-out: hGIPR Ki
T1 construct: expressed in transfected cells; crude membranes
T1 sequence (P48546 22-466): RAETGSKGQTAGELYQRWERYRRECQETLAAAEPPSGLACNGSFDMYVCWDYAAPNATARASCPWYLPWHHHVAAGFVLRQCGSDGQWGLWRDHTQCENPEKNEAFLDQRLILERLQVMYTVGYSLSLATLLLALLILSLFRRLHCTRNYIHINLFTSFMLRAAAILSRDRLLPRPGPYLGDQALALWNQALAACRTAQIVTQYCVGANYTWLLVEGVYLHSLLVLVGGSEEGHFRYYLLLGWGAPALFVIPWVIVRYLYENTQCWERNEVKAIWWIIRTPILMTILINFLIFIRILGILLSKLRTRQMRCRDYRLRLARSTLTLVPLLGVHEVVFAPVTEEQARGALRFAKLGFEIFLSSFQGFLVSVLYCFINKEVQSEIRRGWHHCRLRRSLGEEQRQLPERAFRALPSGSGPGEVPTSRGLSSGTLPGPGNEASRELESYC
In short: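 Ki values are geometric means (SEM, n independent days), derived from four-parameter nonlinear regression of IC50. Membranes came from hGIPR-expressing CHO cells.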

[2] = target: T2, human GLP-1 receptor (GLP-1R) (Homo sapiens, UniProt P43220); test: cAMP functional assay (HTRF) in HEK293 cells in presence of 0.1% casein; type: cell-based; conditions: HEK293 cells expressing human GLP-1R, geometric mean, read-out: hGLP1R cAMP Rel EC50 nM (SEM, n)
T2 construct: expressed in transfected cells; host or cells: HEK293
T2 sequence (P43220 24-463): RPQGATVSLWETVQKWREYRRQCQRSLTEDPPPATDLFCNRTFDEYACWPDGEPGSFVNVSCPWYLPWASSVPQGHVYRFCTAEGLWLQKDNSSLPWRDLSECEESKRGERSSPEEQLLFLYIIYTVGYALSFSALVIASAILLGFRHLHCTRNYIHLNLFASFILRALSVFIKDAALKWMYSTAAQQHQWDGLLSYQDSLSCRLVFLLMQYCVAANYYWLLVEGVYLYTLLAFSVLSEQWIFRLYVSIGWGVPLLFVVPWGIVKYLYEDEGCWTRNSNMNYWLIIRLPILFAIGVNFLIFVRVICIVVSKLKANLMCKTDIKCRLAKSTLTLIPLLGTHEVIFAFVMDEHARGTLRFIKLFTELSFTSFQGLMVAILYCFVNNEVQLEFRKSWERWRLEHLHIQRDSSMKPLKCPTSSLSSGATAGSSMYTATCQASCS

Q: What does the source list for `CC[C@H](C)[C@H](NC(=O)[C@H](CO)NC(=O)[C@H](Cc1ccc(O)cc1)NC(=O)[C@H](CC(=O)O)NC(=O)[C@H](CO)NC(=O)[C@@H](NC(=O)[C@H](Cc1ccccc1)NC(=O)[C@@H](NC(=O)CNC(=O)[C@H](CCC(=O)O)NC(=O)[C@@H](C)NC(=O)[C@@H](N)Cc1ccc(O)cc1)[C@@H](C)O)[C@@H](C)CC)C(=O)N[C@@H](CC(C)C)C(=O)N[C@@H](CC(C)C)C(=O)N[C@@H](CC(=O)O)C(=O)N[C@@H](CCCCN)C(=O)N[C@@H](CCCCNC(=O)COCCOCCNC(=O)COCCOCCNC(=O)CC[C@H](NC(=O)CCCCCCCCCCCCCCCCCCC(=O)O)C(=O)O)C(=O)N[C@@H](Cc1c[nH]cn1)C(=O)N[C@@H](CCC(N)=O)C(=O)N[C@@H](CCC(N)=O)C(=O)N[C@@H](CC(=O)O)C(=O)N[C@@H](Cc1ccccc1)C(=O)N[C@H](C(=O)N[C@@H](CCC(=O)O)C(=O)N[C@@H](Cc1c[nH]c2ccccc12)C(=O)N[C@@H](CC(C)C)C(=O)N[C@@H](CC(C)C)C(=O)N[C@@H](C)C(=O)N[C@@H](CCC(N)=O)C(=O)NCC(=O)N1CCC[C@H]1C(=O)N[C@@H](CO)C(=O)N[C@@H](CO)C(=O)NCC(=O)N[C@@H](C)C(=O)N1CCC[C@H]1C(=O)N1CCC[C@H]1C(=O)N1CCC[C@H]1C(=O)N[C@@H](CO)C(N)=O)C(C)C` [Example 14] (H-Y[dA]EGTFISDYSILLDKK([AEEA-AEEA-γGlu-C20 diacid])HQQDFVEWLLAQGPSSGAPPPS-NH2)?
A: pKi [1]: 9.34; EC50 [2]: > 100 nM

Q: What does the source list for `CC[C@H](C)[C@H](NC(=O)[C@H](CO)NC(=O)[C@H](Cc1ccc(O)cc1)NC(=O)[C@H](CC(=O)O)NC(=O)[C@H](CO)NC(=O)[C@@H](NC(=O)[C@H](Cc1ccccc1)NC(=O)[C@@H](NC(=O)CNC(=O)[C@H](CCC(=O)O)NC(=O)[C@@H](C)NC(=O)[C@@H](N)Cc1ccc(O)cc1)[C@@H](C)O)[C@@H](C)CC)C(=O)N[C@@H](CC(C)C)C(=O)N[C@@H](CC(C)C)C(=O)N[C@@H](CC(=O)O)C(=O)N[C@@H](CCCCN)C(=O)N[C@@H](CCCCNC(=O)COCCOCCNC(=O)COCCOCCNC(=O)CC[C@H](NC(=O)CCCCCCCCCCCCCCCCCCC(=O)O)C(=O)O)C(=O)N[C@@H](Cc1c[nH]cn1)C(=O)N[C@@H](CCC(N)=O)C(=O)N[C@@H](CCC(N)=O)C(=O)N[C@@H](CC(=O)O)C(=O)N[C@@H](Cc1ccccc1)C(=O)N[C@H](C(=O)N[C@@H](CC(N)=O)C(=O)N[C@@H](Cc1ccc(O)cc1)C(=O)N[C@@H](CC(C)C)C(=O)N[C@@H](CC(C)C)C(=O)N[C@@H](C)C(=O)N[C@@H](CCC(N)=O)C(=O)NCC(=O)N1CCC[C@H]1C(=O)N[C@@H](CO)C(=O)N[C@@H](CO)C(=O)NCC(=O)N[C@@H](C)C(=O)N1CCC[C@H]1C(=O)N1CCC[C@H]1C(=O)N1CCC[C@H]1C(=O)N[C@@H](CO)C(N)=O)C(C)C` [Example 15] (H-Y[dA]EGTFISDYSILLDKK([AEEA-AEEA-γGlu-C20 diacid])HQQDFVNYLLAQGPSSGAPPPS-NH2)?
A: pKi [1]: 9.33; EC50 [2]: > 100 nM

Q: How did the pKi [1] turn out when `CC[C@H](C)[C@H](NC(=O)[C@H](CO)NC(=O)[C@H](Cc1ccc(O)cc1)NC(=O)[C@H](CC(=O)O)NC(=O)[C@H](CO)NC(=O)[C@@H](NC(=O)[C@H](Cc1ccccc1)NC(=O)[C@@H](NC(=O)CNC(=O)[C@H](CCC(=O)O)NC(=O)[C@@H](C)NC(=O)[C@@H](N)Cc1ccc(O)cc1)[C@@H](C)O)[C@@H](C)CC)C(=O)N[C@@H](CC(C)C)C(=O)N[C@@H](CC(C)C)C(=O)N[C@@H](CC(=O)O)C(=O)N[C@@H](CCCCN)C(=O)N[C@@H](CCCCNC(=O)COCCOCCNC(=O)COCCOCCNC(=O)CC[C@H](NC(=O)CCCCCCCCCCCCCCCCC(=O)O)C(=O)O)C(=O)N[C@@H](C)C(=O)N[C@@H](CCC(N)=O)C(=O)NC(C)(C)C(=O)N[C@@H](CC(=O)O)C(=O)N[C@@H](Cc1ccccc1)C(=O)N[C@H](C(=O)N[C@@H](CCC(=O)O)C(=O)N[C@@H](Cc1c[nH]c2ccccc12)C(=O)N[C@@H](CC(C)C)C(=O)N[C@@H](CC(C)C)C(=O)N[C@@H](C)C(=O)N[C@@H](CCC(N)=O)C(=O)NCC(=O)N1CCC[C@H]1C(=O)N[C@@H](CO)C(=O)N[C@@H](CO)C(=O)NCC(=O)N[C@@H](C)C(=O)N1CCC[C@H]1C(=O)N1CCC[C@H]1C(=O)N1CCC[C@H]1C(=O)N[C@@H](CO)C(N)=O)C(C)C` [Example 16] (H-Y[dA]EGTFISDYSILLDKK([AEEA-AEEA-γGlu-C18 diacid])AQ[Aib]DFVEWLLAQGPSSGAPPPS-NH2) was run?
A: 10.36

Q: What about the EC50 [2] of the same molecule?
A: > 5000 nM

Q: What does the source list for `CC[C@H](C)[C@H](NC(=O)[C@H](CO)NC(=O)[C@H](Cc1ccc(O)cc1)NC(=O)[C@H](CC(=O)O)NC(=O)[C@H](CO)NC(=O)[C@@H](NC(=O)[C@H](Cc1ccccc1)NC(=O)[C@@H](NC(=O)CNC(=O)[C@H](CCC(=O)O)NC(=O)[C@@H](C)NC(=O)[C@@H](N)Cc1ccc(O)cc1)[C@@H](C)O)[C@@H](C)CC)C(=O)N[C@@H](CC(C)C)C(=O)N[C@@H](CC(C)C)C(=O)N[C@@H](CC(=O)O)C(=O)N[C@@H](CCCCN)C(=O)N[C@@H](CCCCNC(=O)COCCOCCNC(=O)COCCOCCNC(=O)CC[C@H](NC(=O)CCCCCCCCCCCCCCCCC(=O)O)C(=O)O)C(=O)N[C@@H](C)C(=O)N[C@@H](CCC(N)=O)C(=O)NC(C)(C)C(=O)N[C@@H](CC(=O)O)C(=O)N[C@@H](Cc1ccccc1)C(=O)N[C@H](C(=O)N[C@@H](CC(N)=O)C(=O)N[C@@H](Cc1c[nH]c2ccccc12)C(=O)N[C@@H](CC(C)C)C(=O)N[C@@H](CC(C)C)C(=O)N[C@@H](CCC(=O)O)C(=O)N[C@@H](CCC(N)=O)C(=O)NCC(=O)N1CCC[C@H]1C(=O)N[C@@H](CO)C(=O)N[C@@H](CO)C(=O)NCC(=O)N[C@@H](C)C(=O)N1CCC[C@H]1C(=O)N1CCC[C@H]1C(=O)N1CCC[C@H]1C(=O)N[C@@H](CO)C(N)=O)C(C)C` [Example 17] (H-Y[dA]EGTFISDYSILLDKK([AEEA-AEEA-γGlu-C18 diacid])AQ[Aib]DFVNWLLEQGPSSGAPPPS-NH2)?
A: pKi [1]: 10.24; EC50 [2]: > 5000 nM

Q: How did the pKi [1] turn out when `CC[C@H](C)[C@H](NC(=O)[C@H](CO)NC(=O)[C@H](Cc1ccc(O)cc1)NC(=O)[C@H](CC(=O)O)NC(=O)[C@H](CO)NC(=O)[C@@H](NC(=O)[C@H](Cc1ccccc1)NC(=O)[C@@H](NC(=O)CNC(=O)[C@H](CCC(=O)O)NC(=O)[C@@H](C)NC(=O)[C@@H](N)Cc1ccc(O)cc1)[C@@H](C)O)[C@@H](C)CC)C(=O)N[C@@H](CC(C)C)C(=O)N[C@@H](CC(C)C)C(=O)N[C@@H](CC(=O)O)C(=O)N[C@@H](CCCCN)C(=O)N[C@@H](CCCCNC(=O)COCCOCCNC(=O)COCCOCCNC(=O)CC[C@H](NC(=O)CCCCCCCCCCCCCCCCC(=O)O)C(=O)O)C(=O)N[C@@H](C)C(=O)N[C@@H](CCC(N)=O)C(=O)NC(C)(C)C(=O)N[C@@H](CC(=O)O)C(=O)N[C@@H](Cc1ccccc1)C(=O)N[C@H](C(=O)N[C@@H](CC(N)=O)C(=O)N[C@@H](Cc1ccncc1)C(=O)N[C@@H](CC(C)C)C(=O)N[C@@H](CC(C)C)C(=O)N[C@@H](C)C(=O)N[C@@H](CCC(N)=O)C(=O)NCC(=O)N1CCC[C@H]1C(=O)N[C@@H](CO)C(=O)N[C@@H](CO)C(=O)NCC(=O)N[C@@H](C)C(=O)N1CCC[C@H]1C(=O)N1CCC[C@H]1C(=O)N1CCC[C@H]1C(=O)N[C@@H](CO)C(N)=O)C(C)C` [Example 18] (H-Y[dA]EGTFISDYSILLDKK([AEEA-AEEA-γGlu-C18 diacid])AQ[Aib]DFVN[4Pal]LLAQGPSSGAPPPS-NH2) was run?
A: 10.48

Q: What about the EC50 [2] of the same molecule?
A: > 5000 nM
